From patent US9006487B2, “Amine-containing lipids and uses thereof” (Massachusetts Institute of Technology, priority 2005, dated 2015)
Several values for one entry are separate records, joined by “and”; a condition that tells them apart may be missing. Identical values can stand only once.

Tested on: cos-7 cells
Assay: DNA transfection: luciferase expression relative to Lipofectamine 2000
Assay type: cell-based
Details: for Luciferase expression as a percentage of that achieved using Lipofectamine 2000: 300 ng Luciferase DNA per well, luciferase assay after 48 hours; for luciferase expression (second part of table, values relative to LIPO2000): 300 ng of DNA per well
How it was run: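 Lipid/DNA complexes, 300 ng luciferase DNA per well at 2.5-25 w/w lipid:DNA, were formed in sodium acetate/Optimem and added to overnight-seeded cos-7 cells. Luciferase was measured by Bright-Glo luminescence after 48 hours and quantified against an enzyme standard curve. Values are expressed as % of Lipofectamine 2000 at 2.5 w/w.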

Structure (SMILES)	Luciferase expression as a percentage of that achieved using Lipofectamine 2000 (lipid/DNA 2.5 w/w)	Luciferase expression as a percentage of that achieved using Lipofectamine 2000 (lipid/DNA 5 w/w)	Luciferase expression as a percentage of that achieved using Lipofectamine 2000 (lipid/DNA 10 w/w)	Luciferase expression as a percentage of that achieved using Lipofectamine 2000 (lipid/DNA 15 w/w)	Luciferase expression as a percentage of that achieved using Lipofectamine 2000 (lipid/DNA 20 w/w)	Luciferase expression as a percentage of that achieved using Lipofectamine 2000 (lipid/DNA 25 w/w)	luciferase expression (second part of table, values relative to LIPO2000) (lipid/DNA 2.5 w/w)	luciferase expression (second part of table, values relative to LIPO2000) (lipid/DNA 5 w/w)	luciferase expression (second part of table, values relative to LIPO2000) (lipid/DNA 10 w/w)	luciferase expression (second part of table, values relative to LIPO2000) (lipid/DNA 15 w/w)	luciferase expression (second part of table, values relative to LIPO2000) (lipid/DNA 20 w/w)	luciferase expression (second part of table, values relative to LIPO2000) (lipid/DNA 25 w/w)
CCCCCCCCCCCCCCOC(=O)CCN(CCCCCCO)CCC(=O)OCCCCCCCCCCCCCC [LF36]	0.1%	0.1%	0.1%	0.1%	0.1%	0.1%						
CCCCCCCCCCCCCCOC(=O)CCN(CCC(=O)OCCCCCCCCCCCCCC)C1CCC(O)CC1 (stereo not drawn) [LF38]	0.8%	0.9%	0.9%	0.9%	0.8%	1.0%						
CCCCCCCCCCCCCCOC(=O)CCN(C)CCN(C)CCC(=O)OCCCCCCCCCCCCCC [LF60]	0.4%	0.4%	0.5%	0.5%	0.5%	0.5%						
CCCCCCCCCCCCCCOC(=O)CCN(CC)CCN(CC)CCC(=O)OCCCCCCCCCCCCCC [LF61]	0.1%	0.1%	0.1%	0.1%	0.1%	0.1%						
CCCCCCCCCCCCCCOC(=O)CCN(CCN(CCC(=O)OCCCCCCCCCCCCCC)C(C)C)C(C)C [LF62]	0.1%	0.1%	0.2%	0.1%	0.4%	0.2%						
CCCCCCCCCCCCCCOC(=O)CCN1CCCN(CCC(=O)OCCCCCCCCCCCCCC)CC1 [LF70]	0.1%	0.1%	0.2%	0.3%	0.2%	0.3%						
CCCCCCCCCCCCCCOC(=O)CCN(CCC(=O)OCCCCCCCCCCCCCC)CCN(CC)CC [LF75]	0.7%	1.0%	0.7%	1.9%	1.7%	1.7%						
CCCCCCCCCCCCCCOC(=O)CCN(CCC(=O)OCCCCCCCCCCCCCC)CCN1CCCC1 [LF76]	1.7%	5.6%	9.8%	24.3%	22.2%	19.5%						
CCCCCCCCCCCCCCOC(=O)CCN(CCC(=O)OCCCCCCCCCCCCCC)CCC1CCCN1C (stereo not drawn) [LF77]	3.7%	25.1%	28.2%	24.1%	17.0%	22.1%						
CCCCCCCCCCCCCCOC(=O)CCN(CCC(=O)OCCCCCCCCCCCCCC)C(C)CN(C)C (stereo not drawn) [LF79]	0.1%	0.3%	0.3%	0.3%	0.3%	0.3%						
CCCCCCCCCCCCCCOC(=O)CCN(CCCN(C)C)CCC(=O)OCCCCCCCCCCCCCC [LF80]	2.5%	35.1%	35.5%	34.3%	19.9%	14.8%						
CCCCCCCCCCCCCCOC(=O)CCN(CCCN(CC)CC)CCC(=O)OCCCCCCCCCCCCCC [LF81]	0.5%	1.6%	1.5%	4.9%	4.6%	4.0%						
CCCCCCCCCCCCCCOC(=O)CCN(CCC(=O)OCCCCCCCCCCCCCC)CCN1CCCCC1 [LF82]	0.4%	0.3%	0.7%	0.5%	0.6%	0.8%						
CCCCCCCCCCCCCCOC(=O)CCN(CCC(=O)OCCCCCCCCCCCCCC)CCN(CCO)CCO [LF86]	21.5%	17.9%	19.6%	21.2%	10.5%	10.4%						
CCCCCCCCCCCCCCOC(=O)CCN(CCCN(CCO)CCO)CCC(=O)OCCCCCCCCCCCCCC [LF87]	19.4%	11.3%	30.2%	13.3%	11.0%	10.0%						
CCCCCCCCCCCCCCOC(=O)CCN(CCC(=O)OCCCCCCCCCCCCCC)CCN1CCOCC1 [LF90]	0.4% and 0.5%	0.5% and 0.4%	0.3% and 0.7%	1.3% and 0.4%	1.1% and 0.4%	1.5% and 0.4%						
CCCCCCCCCCCCCCOC(=O)CCN(CCCN1CCOCC1)CCC(=O)OCCCCCCCCCCCCCC [LF91]	0.5%	0.5%	0.8%	1.4%	1.3%	1.6%						
CCCCCCCCCCCCCCOC(=O)CCN(CCCn1ccnc1)CCC(=O)OCCCCCCCCCCCCCC [LF93]	32.0%	50.4%	15.0%	150.7%	143.2%	171.3%	32.0	50.4	15.0	150.7	143.2	171.3
CCCCCCCCCCCCCCOC(=O)CCN(CCC(=O)OCCCCCCCCCCCCCC)CCN(CCC(=O)OCCCCCCCCCCCCCC)CCC(=O)OCCCCCCCCCCCCCC [LF99]	32.2%	49.8%	26.5%	10.7%	6.0%	6.2%	32.2	49.8	26.5	10.7	6.0	6.2
